Test results: US20090131443A1, “METHOD FOR PREVENTION AND/OR TREATMENT OF RHEUMATOID ARTHRITIS” (Kowa Co., Ltd., priority 2005, published 2009)

System: rats of a collagen-induced arthritis model
Assay: Both-hindlimb edema suppression in rats of a collagen-induced arthritis model
Format: in vivo, Lewis female rats (LEW/Crj)
Conditions: solo administration; for Edema Index: mean ± standard error, control group 6.85 ± 0.33; for Percent edema suppression: vs control group
Procedure: The effect on suppressing both-hindlimb edema of 2-benzyl-5-(4-chlorophenyl)-6-[4-(methylthio)phenyl]-2H-pyridazin-3-one (synthesized through the aforementioned method) and that of tacrolimus (Prograf (injection: 5 mg), product of Fujisawa Pharmaceutical Co., Ltd.) were determined both in the cases of combined administration and solo administration through the following procedure (by use of rats of a collagen-induced arthritis model) (FDA, CBER, CDER, CDRH: Guidance for industry—Clinical development programs for drugs, devices, and biological products for the treatment of rheumatoid arthritis (RA)—. (1999)). Lewis female rats (LEW/Crj) (obtained from Charles River Laboratories Japan, Inc.) were employed as test animals.
For each 8-week-old LEW/Crj rat, the volume of a portion from the ankle to the toe tip of each hindlimb was measured by means of a plethysmometer for small animals (TK-101CMP, product of Unicom), and a total of the two volumes was employed as a volume of the hindlimbs (hereinafter referred to as both-hindlimb volume) at the start of the test (hereinafter referred to as Pre value). By use of the Pre value as an index, the rats were divided into groups which are alike from group to group, through one-parameter-based block randomization.
The collagen emulsion for sensitization employed for inducing arthritis in rats was prepared by homogenizing a 0.3% Type II collagen liquid (product of Collagen Research Center), adjuvant peptide (product of Peptide Institute, Inc.), and adjuvant incomplete Freund (product of DIFCO) by means of a Handy Micro Homogenizer (product of Microtec Nition) under cooling with ice. The thus-prepared emulsion was intracutaneously injected to 10 sites in the dorsum of each rat at 0.1 mL/site, to thereby initially sensitize the rat. Seven days after initial sensitization, the same emulsion (0.12 mL) was intracutaneously injected to the tail head of the rat for booster sensitization.
Administration of one drug or two drugs was carried out the day after initial sensitization to day 26. To the 2-benzyl-5-(4-chlorophenyl)-6-[4-(methylthio)phenyl]-2H-pyridazin-3-one solo administration group, the drug was orally administered twice; in the morning (9:00 to 11:00) and in the evening (15:30 to 17:30) at a dose of 3 mg/kg. To the tacrolimus sole administration group, the drug was orally administered once in the afternoon (11:30 to 13:30) at a dose of 0.1, 0.3, or 1 mg/kg. To the combined administration group (2-benzyl-5-(4-chlorophenyl)-6-[4-(methylthio)phenyl]-2H-pyridazin-3-one and tacrolimus), 2-benzyl-5-(4-chlorophenyl)-6-[4-(methylthio)phenyl]-2H-pyridazin-3-one was orally administered in the morning (9:00 to 11:00) and in the evening (15:30 to 17:30) at a dose of 3 mg/kg, and tacrolimus was orally administered in the afternoon (11:30 to 13:30) at a dose of 0.3 mg/kg.
14 days, 18 days, 22 days, and 26 days after initial sensitization, both-hindlimb volume was measured. Volume of both-hindlimb edema was calculated by subtracting the Pre value from the thus-measured value.
Table 1 and FIG. 1 show Edema Index of the groups of rats, the groups being the 2-benzyl-5-(4-chlorophenyl)-6-[4-(methylthio)phenyl]-2H-pyridazin-3-one solo administration group, the tacrolimus solo administration group, and the combined administration group. The Edema Index of each group is an average of the indices obtained from 6 to 12 rats ±a standard error. Percent edema suppression represents a value obtained from the relationship:
100×[(average both-hindlimb edema volume of the control group)−(average both-hindlimb edema volume of each administration group)]/(average both-hindlimb edema volume of the control group). Relative factor represents a ratio of (average both-hindlimb edema volume of each administration group)/(average both-hindlimb edema volume of the control group).

| SMILES | Edema Index suppression effect (in words) (3 mg/kg) | Edema Index (3 mg/kg orally twice daily, day 1 to day 26 after initial sensitization, sum of both-hindlimb edema volumes at days 14, 18, 22, 26) [mL] | Relative factor (3 mg/kg orally twice daily, ratio of group average edema volume to control group) | Percent edema suppression (3 mg/kg orally twice daily) [%] | Edema Index (0.1 mg/kg orally once daily, day 1 to day 26) [mL] | Relative factor (0.1 mg/kg orally once daily, ratio to control group) | Percent edema suppression (0.1 mg/kg orally once daily) [%] | Edema Index (0.3 mg/kg orally once daily, day 1 to day 26) [mL] | Relative factor (0.3 mg/kg orally once daily, ratio to control group) | Percent edema suppression (0.3 mg/kg orally once daily) [%] | Edema Index (1 mg/kg orally once daily, day 1 to day 26) [mL] | Relative factor (1 mg/kg orally once daily, ratio to control group) | Percent edema suppression (1 mg/kg orally once daily) [%] | Edema Index suppression effect (in words) (up to 1 mg/kg) |
| --- | --- | --- | --- | --- | --- | --- | --- | --- | --- | --- | --- | --- | --- | --- |
| CSc1ccc(-c2nn(Cc3ccccc3)c(=O)cc2-c2ccc(Cl)cc2)cc1 [2-benzyl-5-(4-chlorophenyl)-6-[4-(methylthio)phenyl]-2H-pyridazin-3-one] | do not result in potent Edema Index suppression effects | 5.58 ± 0.63 | 0.81 | 19 | – | – | – | – | – | – | – | – | – | – |
| C=CC[C@@H]1/C=C(\C)C[C@H](C)C[C@H](OC)[C@H]2O[C@@](O)(C(=O)C(=O)N3CCCC[C@H]3C(=O)O[C@H](/C(C)=C/[C@@H]3CC[C@@H](O)[C@H](OC)C3)[C@H](C)[C@@H](O)CC1=O)[C@H](C)C[C@@H]2OC [Tacrolimus, tacrolimus] | – | – | – | – | 6.75 ± 0.31 | 0.99 | 1 | 6.09 ± 0.30 | 0.89 | 11 | 5.04 ± 0.20 | 0.74 | 26 | do not result in potent Edema Index suppression effects |
